According to ChEMBL document CHEMBL4017490, “Design, Synthesis, and Pharmacological Evaluation of Novel Multisubstituted Pyridin-3-amine Derivatives as Multitargeted Protein Kinase Inhibitors for the Treatment of Non-Small Cell Lung Cancer” (J Med Chem, 2017):

What was measured:
[1] = molecular target: Fibroblast growth factor receptor 1 (Homo sapiens, UniProt P11362); assay: Inhibition of recombinant human FGFR1 using poly (Glu,Tyr) 4:1 as substrate after 60 mins by ELISA
[2] = molecular target: Fibroblast growth factor receptor 2 (Homo sapiens, UniProt P21802)
Description: Inhibition of recombinant human FGFR2 using poly (Glu,Tyr) 4:1 as substrate after 60 mins by ELISA

[3] = molecular target: Fibroblast growth factor receptor 3 (Homo sapiens, UniProt P22607); assay: Inhibition of recombinant human FGFR3 using poly (Glu,Tyr) 4:1 as substrate after 60 mins by ELISA
Sequence of Fibroblast growth factor receptor 3 (P22607 whole entry): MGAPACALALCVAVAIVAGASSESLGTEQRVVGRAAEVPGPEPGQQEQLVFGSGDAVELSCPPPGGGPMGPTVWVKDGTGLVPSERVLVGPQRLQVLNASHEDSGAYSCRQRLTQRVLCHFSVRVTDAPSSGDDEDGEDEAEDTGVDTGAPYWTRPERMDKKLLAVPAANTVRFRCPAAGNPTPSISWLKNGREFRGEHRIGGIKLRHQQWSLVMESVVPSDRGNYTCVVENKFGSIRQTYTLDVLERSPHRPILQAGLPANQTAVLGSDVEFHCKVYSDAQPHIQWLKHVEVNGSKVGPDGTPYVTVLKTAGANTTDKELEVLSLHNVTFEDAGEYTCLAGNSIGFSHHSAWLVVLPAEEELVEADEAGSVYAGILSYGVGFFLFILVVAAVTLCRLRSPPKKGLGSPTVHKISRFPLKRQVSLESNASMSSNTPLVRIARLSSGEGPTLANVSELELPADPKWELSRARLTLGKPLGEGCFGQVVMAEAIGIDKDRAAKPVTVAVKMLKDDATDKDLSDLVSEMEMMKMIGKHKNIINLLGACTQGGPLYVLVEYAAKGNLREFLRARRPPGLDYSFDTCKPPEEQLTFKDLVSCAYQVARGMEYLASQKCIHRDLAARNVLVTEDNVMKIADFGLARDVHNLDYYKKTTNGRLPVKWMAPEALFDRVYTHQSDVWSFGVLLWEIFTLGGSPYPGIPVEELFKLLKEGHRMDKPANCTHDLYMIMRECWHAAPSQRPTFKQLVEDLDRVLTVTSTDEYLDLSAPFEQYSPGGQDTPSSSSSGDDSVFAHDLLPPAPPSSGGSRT

[4] = molecular target: Fibroblast growth factor receptor 4 (Homo sapiens, UniProt P22455); assay: Inhibition of recombinant human FGFR4 using poly (Glu,Tyr) 4:1 as substrate after 60 mins by ELISA
[5] = molecular target: Vascular endothelial growth factor receptor 2 (Homo sapiens, UniProt P35968); assay: Inhibition of recombinant KDR (unknown origin) using poly (Glu,Tyr) 4:1 as substrate after 60 mins by ELISA
[6] = molecular target: Proto-oncogene tyrosine-protein kinase receptor Ret (Homo sapiens, UniProt P07949); assay: Inhibition of recombinant Ret (unknown origin) using poly (Glu,Tyr) 4:1 as substrate after 60 mins by ELISA
[7] = molecular target: Epidermal growth factor receptor (Homo sapiens, UniProt P00533, L858R/T790M); assay: Inhibition of recombinant EGFR T790M/L858R mutant (unknown origin) using poly (Glu,Tyr) 4:1 as substrate after 60 mins by ELISA
[8] = molecular target: Receptor tyrosine-protein kinase erbB-4 (Homo sapiens, UniProt Q15303); assay: Inhibition of recombinant ErbB4 (unknown origin) using poly (Glu,Tyr) 4:1 as substrate after 60 mins by ELISA
[9] = molecular target: Proto-oncogene tyrosine-protein kinase Src (Homo sapiens, UniProt P12931); assay: Inhibition of recombinant c-Src (unknown origin) using poly (Glu,Tyr) 4:1 as substrate after 60 mins by ELISA
Insulin receptor = Insulin receptor (Homo sapiens, UniProt P06213); assay: Inhibition of recombinant IR (unknown origin) using poly (Glu,Tyr) 4:1 as substrate after 60 mins by ELISA
Sequence of Insulin receptor (P06213 28-758 limits assumed): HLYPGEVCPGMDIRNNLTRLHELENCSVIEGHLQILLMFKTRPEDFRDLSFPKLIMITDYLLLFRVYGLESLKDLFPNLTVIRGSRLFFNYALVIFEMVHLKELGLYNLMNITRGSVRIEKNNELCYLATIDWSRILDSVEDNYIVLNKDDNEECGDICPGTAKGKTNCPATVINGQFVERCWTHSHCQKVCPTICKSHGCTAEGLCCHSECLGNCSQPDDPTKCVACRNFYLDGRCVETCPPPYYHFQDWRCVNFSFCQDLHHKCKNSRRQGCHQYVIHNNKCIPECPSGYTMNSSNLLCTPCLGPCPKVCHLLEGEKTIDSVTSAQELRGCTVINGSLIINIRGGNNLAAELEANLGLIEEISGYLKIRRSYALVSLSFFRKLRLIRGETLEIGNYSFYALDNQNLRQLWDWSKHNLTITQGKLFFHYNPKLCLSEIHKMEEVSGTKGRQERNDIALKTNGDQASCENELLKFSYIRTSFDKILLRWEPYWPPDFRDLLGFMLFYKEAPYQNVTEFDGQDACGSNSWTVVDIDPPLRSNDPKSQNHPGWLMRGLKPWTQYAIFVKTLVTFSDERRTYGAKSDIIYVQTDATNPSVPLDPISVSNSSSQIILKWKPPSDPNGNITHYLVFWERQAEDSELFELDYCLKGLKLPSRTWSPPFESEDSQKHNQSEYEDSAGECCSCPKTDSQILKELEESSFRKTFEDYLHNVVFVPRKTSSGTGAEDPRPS
Sequence of Insulin receptor (P06213 763-1382 limits assumed): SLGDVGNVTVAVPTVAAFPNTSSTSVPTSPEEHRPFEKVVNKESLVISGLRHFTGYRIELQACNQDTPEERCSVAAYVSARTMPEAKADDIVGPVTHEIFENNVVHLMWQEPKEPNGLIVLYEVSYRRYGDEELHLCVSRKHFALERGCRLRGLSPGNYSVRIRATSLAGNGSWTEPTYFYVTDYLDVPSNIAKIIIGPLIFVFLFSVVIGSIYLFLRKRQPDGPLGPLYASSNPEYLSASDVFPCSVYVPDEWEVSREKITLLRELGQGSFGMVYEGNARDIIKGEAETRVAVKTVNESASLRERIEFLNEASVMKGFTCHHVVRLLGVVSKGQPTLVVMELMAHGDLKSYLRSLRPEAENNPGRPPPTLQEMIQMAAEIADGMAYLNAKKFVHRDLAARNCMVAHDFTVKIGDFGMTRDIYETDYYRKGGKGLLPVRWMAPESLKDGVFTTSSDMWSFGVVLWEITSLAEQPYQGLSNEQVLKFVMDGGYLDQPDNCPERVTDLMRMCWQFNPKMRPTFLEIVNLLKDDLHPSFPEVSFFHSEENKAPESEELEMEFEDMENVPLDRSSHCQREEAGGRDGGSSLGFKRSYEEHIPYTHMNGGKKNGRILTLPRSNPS

[10] = molecular target: Insulin-like growth factor 1 receptor (Homo sapiens, UniProt P08069); assay: Inhibition of recombinant IGF1R (unknown origin) using poly (Glu,Tyr) 4:1 as substrate after 60 mins by ELISA
[11] = molecular target: Platelet-derived growth factor receptor alpha (Homo sapiens, UniProt P16234); assay: Inhibition of recombinant PDGFR-alpha (unknown origin) using poly (Glu,Tyr) 4:1 as substrate after 60 mins by ELISA
[12] = molecular target: Platelet-derived growth factor receptor beta (Homo sapiens, UniProt P09619); assay: Inhibition of recombinant PDGFR-beta (unknown origin) using poly (Glu,Tyr) 4:1 as substrate after 60 mins by ELISA
[13] = molecular target: Receptor tyrosine-protein kinase erbB-2 (Homo sapiens, UniProt P04626); assay: Inhibition of recombinant ErbB2 (unknown origin) using poly (Glu,Tyr) 4:1 as substrate after 60 mins by ELISA
[14] = molecular target: Leukocyte tyrosine kinase receptor (Homo sapiens, UniProt P29376); assay: Inhibition of recombinant LTK (unknown origin) using poly (Glu,Tyr) 4:1 as substrate after 60 mins by ELISA
[15] = molecular target: Proto-oncogene tyrosine-protein kinase ROS (Homo sapiens, UniProt P08922); assay: Inhibition of recombinant ROS1 (unknown origin) using poly (Glu,Tyr) 4:1 as substrate after 60 mins by ELISA
[16] = molecular target: Mast/stem cell growth factor receptor Kit (Homo sapiens, UniProt P10721); assay: Inhibition of recombinant c-Kit (unknown origin) using poly (Glu,Tyr) 4:1 as substrate after 60 mins by ELISA
Sequence of Mast/stem cell growth factor receptor Kit (P10721 whole entry): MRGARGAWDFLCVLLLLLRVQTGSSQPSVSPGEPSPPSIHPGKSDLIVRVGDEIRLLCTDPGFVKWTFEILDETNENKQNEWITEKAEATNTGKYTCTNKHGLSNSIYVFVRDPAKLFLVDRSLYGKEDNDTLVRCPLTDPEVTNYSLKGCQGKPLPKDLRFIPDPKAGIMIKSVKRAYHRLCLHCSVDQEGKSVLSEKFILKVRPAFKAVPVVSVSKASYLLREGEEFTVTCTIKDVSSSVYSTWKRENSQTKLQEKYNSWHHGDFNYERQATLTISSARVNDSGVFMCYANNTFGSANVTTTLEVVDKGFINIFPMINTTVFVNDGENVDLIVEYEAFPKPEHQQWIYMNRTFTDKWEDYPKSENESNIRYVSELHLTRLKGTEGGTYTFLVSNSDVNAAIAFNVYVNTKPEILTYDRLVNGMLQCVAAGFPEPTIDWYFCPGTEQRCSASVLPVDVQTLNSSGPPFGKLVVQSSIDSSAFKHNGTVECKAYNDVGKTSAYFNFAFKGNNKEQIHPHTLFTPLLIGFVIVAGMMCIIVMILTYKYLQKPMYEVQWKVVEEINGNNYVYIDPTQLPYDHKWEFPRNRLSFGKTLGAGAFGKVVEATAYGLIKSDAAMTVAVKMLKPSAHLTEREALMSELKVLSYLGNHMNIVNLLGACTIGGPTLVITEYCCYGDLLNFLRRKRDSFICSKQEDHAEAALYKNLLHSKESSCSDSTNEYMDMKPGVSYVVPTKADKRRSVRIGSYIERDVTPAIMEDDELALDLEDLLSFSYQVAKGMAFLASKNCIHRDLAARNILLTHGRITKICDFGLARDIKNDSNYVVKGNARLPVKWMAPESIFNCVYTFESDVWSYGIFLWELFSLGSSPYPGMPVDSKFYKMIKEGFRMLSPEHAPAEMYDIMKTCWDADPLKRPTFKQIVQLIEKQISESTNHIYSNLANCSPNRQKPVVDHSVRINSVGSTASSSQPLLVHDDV

[17] = molecular target: Mitogen-activated protein kinase 1 (Homo sapiens, UniProt P28482); assay: Inhibition of Erk2 (unknown origin) by FRET assay
[18] = molecular target: Hepatocyte growth factor receptor (Homo sapiens, UniProt P08581); assay: Inhibition of recombinant c-Met (unknown origin) using poly (Glu,Tyr) 4:1 as substrate after 60 mins by ELISA
[19] = molecular target: T1, Tyrosine-protein kinase receptor TYRO3 (Homo sapiens, UniProt Q06418); assay: Inhibition of recombinant Tyro3 (unknown origin) using poly (Glu,Tyr) 4:1 as substrate after 60 mins by ELISA
T1 sequence (Q06418 whole entry): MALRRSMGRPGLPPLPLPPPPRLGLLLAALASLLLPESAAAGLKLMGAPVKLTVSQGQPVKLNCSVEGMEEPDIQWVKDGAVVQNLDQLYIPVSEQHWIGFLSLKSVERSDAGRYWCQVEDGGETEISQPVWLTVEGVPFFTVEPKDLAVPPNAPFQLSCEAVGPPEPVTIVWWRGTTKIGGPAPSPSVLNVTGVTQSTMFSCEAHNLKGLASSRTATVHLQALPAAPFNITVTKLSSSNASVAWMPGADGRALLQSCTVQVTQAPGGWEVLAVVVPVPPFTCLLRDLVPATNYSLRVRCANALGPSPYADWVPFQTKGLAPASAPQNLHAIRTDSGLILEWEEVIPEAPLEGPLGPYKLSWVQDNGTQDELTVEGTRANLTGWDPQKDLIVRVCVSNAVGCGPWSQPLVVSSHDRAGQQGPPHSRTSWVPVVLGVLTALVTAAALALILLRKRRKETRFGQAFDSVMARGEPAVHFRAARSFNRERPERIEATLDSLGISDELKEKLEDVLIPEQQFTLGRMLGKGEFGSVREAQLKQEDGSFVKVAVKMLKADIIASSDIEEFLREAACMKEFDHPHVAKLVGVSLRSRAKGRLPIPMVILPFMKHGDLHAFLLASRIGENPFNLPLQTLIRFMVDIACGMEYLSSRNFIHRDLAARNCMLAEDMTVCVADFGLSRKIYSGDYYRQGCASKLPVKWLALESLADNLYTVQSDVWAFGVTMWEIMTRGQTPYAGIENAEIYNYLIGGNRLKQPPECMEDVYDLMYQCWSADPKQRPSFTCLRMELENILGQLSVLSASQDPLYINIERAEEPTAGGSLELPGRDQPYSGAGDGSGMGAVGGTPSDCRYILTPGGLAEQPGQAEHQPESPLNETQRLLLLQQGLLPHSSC

[20] = molecular target: Cyclin-dependent kinase 1 (Homo sapiens, UniProt P06493); assay: Inhibition of CDK1 (unknown origin) by FRET assay
Sequence of Cyclin-dependent kinase 1 (P06493 whole entry): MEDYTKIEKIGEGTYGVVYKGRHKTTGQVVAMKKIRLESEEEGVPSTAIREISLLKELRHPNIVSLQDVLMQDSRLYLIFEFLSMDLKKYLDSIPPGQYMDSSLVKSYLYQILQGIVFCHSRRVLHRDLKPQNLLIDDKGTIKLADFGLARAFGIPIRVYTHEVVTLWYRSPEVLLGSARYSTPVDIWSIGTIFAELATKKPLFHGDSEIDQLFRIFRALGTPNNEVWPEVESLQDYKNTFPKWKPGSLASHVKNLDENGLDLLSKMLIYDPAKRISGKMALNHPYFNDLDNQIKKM

[21] = molecular target: Cyclin-dependent kinase 4 (Homo sapiens, UniProt P11802); assay: Inhibition of CDK4 (unknown origin) by FRET assay
[22] = molecular target: Cyclin-dependent kinase 6 (Homo sapiens, UniProt Q00534); assay: Inhibition of CDK6 (unknown origin) by FRET assay
Sequence of Cyclin-dependent kinase 6 (Q00534 whole entry): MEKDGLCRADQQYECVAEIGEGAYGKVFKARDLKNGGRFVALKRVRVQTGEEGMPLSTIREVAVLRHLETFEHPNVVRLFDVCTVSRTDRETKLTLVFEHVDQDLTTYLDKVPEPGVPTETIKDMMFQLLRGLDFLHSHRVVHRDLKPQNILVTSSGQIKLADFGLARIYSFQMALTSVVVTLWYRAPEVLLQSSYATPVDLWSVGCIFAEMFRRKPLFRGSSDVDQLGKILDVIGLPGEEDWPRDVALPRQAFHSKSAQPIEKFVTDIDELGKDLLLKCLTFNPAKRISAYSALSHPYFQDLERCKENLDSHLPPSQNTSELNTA

[23] = molecular target: Epidermal growth factor receptor (Homo sapiens, UniProt P00533)
Sequence of Epidermal growth factor receptor (Homo sapiens, UniProt P00533) (P00533 whole entry): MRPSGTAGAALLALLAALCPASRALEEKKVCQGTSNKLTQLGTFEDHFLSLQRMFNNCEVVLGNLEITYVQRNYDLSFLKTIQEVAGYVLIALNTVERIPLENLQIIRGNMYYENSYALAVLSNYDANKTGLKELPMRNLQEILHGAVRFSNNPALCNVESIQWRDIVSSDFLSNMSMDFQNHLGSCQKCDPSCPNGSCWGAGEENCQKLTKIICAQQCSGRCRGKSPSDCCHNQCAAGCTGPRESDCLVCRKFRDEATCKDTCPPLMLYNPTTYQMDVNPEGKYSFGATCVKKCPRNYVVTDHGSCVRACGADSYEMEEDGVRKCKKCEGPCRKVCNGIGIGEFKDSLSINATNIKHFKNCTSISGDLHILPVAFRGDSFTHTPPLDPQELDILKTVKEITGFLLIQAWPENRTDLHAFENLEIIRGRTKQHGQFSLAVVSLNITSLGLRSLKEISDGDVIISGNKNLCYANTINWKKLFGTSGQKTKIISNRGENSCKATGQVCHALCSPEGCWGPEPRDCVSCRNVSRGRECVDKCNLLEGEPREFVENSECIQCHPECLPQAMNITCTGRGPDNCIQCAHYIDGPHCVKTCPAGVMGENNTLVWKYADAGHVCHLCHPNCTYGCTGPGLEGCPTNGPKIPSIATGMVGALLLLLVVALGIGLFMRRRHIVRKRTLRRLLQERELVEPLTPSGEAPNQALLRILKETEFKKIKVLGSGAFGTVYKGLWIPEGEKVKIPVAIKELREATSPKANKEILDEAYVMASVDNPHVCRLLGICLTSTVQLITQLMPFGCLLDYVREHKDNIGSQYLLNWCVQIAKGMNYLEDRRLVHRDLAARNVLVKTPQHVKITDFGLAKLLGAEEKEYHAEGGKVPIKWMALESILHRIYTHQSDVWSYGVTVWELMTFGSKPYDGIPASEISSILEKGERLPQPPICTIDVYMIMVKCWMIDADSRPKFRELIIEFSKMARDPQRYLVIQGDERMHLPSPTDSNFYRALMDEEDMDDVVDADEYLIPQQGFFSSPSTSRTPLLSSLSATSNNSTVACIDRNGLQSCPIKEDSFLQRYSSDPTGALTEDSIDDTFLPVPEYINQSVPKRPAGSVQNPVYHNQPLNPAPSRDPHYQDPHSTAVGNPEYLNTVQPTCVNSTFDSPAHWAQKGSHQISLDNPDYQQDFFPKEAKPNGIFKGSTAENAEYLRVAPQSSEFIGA
Description: Inhibition of recombinant EGFR (unknown origin) using poly (Glu,Tyr) 4:1 as substrate after 60 mins by ELISA

[24] = molecular target: Tyrosine-protein kinase ABL1 (Homo sapiens, UniProt P00519)
Description: Inhibition of recombinant ABL (unknown origin) using poly (Glu,Tyr) 4:1 as substrate after 60 mins by ELISA

[25] = molecular target: ALK tyrosine kinase receptor (Homo sapiens, UniProt Q9UM73)
Description: Inhibition of recombinant ALK (unknown origin) using poly (Glu,Tyr) 4:1 as substrate after 60 mins by ELISA

SMILES | IC50 [1] [nM] | IC50 [2] [nM] | IC50 [3] [nM] | IC50 [4] [nM] | IC50 [5] [nM] | IC50 [6] [nM] | IC50 [7] [nM] | IC50 [8] [nM] | IC50 [9] [nM] | IC50 (Insulin receptor) [nM] | IC50 [10] [nM] | IC50 [11] [nM] | IC50 [12] [nM] | IC50 [13] [nM] | IC50 [14] [nM] | IC50 [15] [nM] | IC50 [16] [nM] | IC50 [17] [nM] | IC50 [18] [nM] | IC50 [19] [nM] | further results
Cc1n[nH]c2ccc(-c3cc(N[C@@H](CO)c4ccccc4)cnc3-c3cc(F)ccc3O)cc12 | 18 | 1.6 | 27.5 | 299 | 1.7 | 0.2 | 6 | 6.2 | 5.7 | 417 | > 1000 | > 100 | > 10 | > 10 | 123 | > 1000 | > 10 | 575 | > 1000 | > 1000 | IC50 [20]: > 1000 nM; IC50 [21]: > 1000 nM; IC50 [22]: > 1000 nM; IC50 [23]: 4.7 nM; IC50 [24]: 2.9 nM; IC50 [25]: 101 nM
Cc1n[nH]c2ccc(-c3cc(N[C@@H](CO)c4ccccc4)cnc3-c3ccc(F)cc3O)cc12 | 25.2 | 4.7 | 15.9 | 93.3 | 2.6 | 0.4 | 1.3 | 2.4 | 6 | 888 | > 1000 | > 100 | 1 to 10 | 1 to 10 | 68.5 | > 1000 | > 10 | > 1000 | > 1000 | > 1000 | IC50 [20]: > 1000 nM; IC50 [21]: > 1000 nM; IC50 [22]: > 1000 nM; IC50 [23]: 8.1 nM; IC50 [24]: 6.1 nM; IC50 [25]: 155 nM
Cc1n[nH]c2ccc(-c3cc(N[C@@H](CO)c4ccccc4)cnc3-c3cc(Cl)ccc3O)cc12 | 55.8 | 8.6 | 73.1 | 61.7 | 3.7 | 0.7 | 8.6 | 5.3 | 3.9 | 91.6 | > 100 | > 100 | > 100 | 1 to 10 | 300 | 273 | > 10 | 960 | > 1000 | > 1000 | IC50 [20]: > 1000 nM; IC50 [21]: > 1000 nM; IC50 [22]: > 1000 nM; IC50 [23]: 3.1 nM; IC50 [24]: 6.6 nM; IC50 [25]: 231 nM
OC[C@H](Nc1cnc(-c2cc(Cl)ccc2O)c(-c2ccc3cnccc3c2)c1)c1ccccc1 | 16.1 | 2 | 23 | 7.4 | 0.8 | 0.04 | 1.9 | 5 | 6.4 | 431 | > 1000 | > 100 | 1 to 10 | 1 to 10 | 45.3 | 168 | > 10 | 196 | 196 | > 1000 | IC50 [20]: > 1000 nM; IC50 [21]: > 1000 nM; IC50 [22]: > 1000 nM; IC50 [23]: 4.2 nM; IC50 [24]: 4.3 nM; IC50 [25]: 93.9 nM
